Test results from PubChem BioAssay AID687040 (Broad Institute, 2013).
Activity calls are given as the source filed them.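 How the source made its calls: active means fitted curve hits 40% activity increase at a dose no higher than the top valid tested dose; inconclusive means flat curve at 30 to 70% activity, or poor fit; inactive means the rest.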

system: not listed separately; assay: miR-122 suppression via Renilla sensor signal rise – cell-based, Huh7-psiCHECK-miR122, luminescence, dry powder, dose response (AID 687040); conditions: Huh7 psiCHECK-miR122 Renilla luciferase reporter, 48 h; at 35 µM (top of the series)

With O=S(=O)(Nc1cccc2[nH]ncc12)c1ccc(F)c2ncccc12 as the compound, how does the activity increase (miR-122 inhibition) read?
Its activity increase (miR-122 inhibition) is 6.99% (inactive).

system: Huh7 psiCHECK-miR122 Renilla luciferase reporter, 48 h; assay: as above; conditions: not given

With CC1CCCCN1C(=O)c1cc2nc(-c3ccccc3)cc(-c3ccccc3)n2n1 (centres undefined) as the compound, how does the AC40 read?
The AC40 was 925 nM.

For COc1ccc(C)cc1NS(=O)(=O)c1ccc2c(c1)N(C)CCO2, which AC40 is on record?
The AC40 was 2650 nM.

Which AC40 does the source give for Cc1ccc(C(=O)C2Oc3ccccc3C3CC(c4ccc(C)cc4)=NN23)cc1 (centres undefined) here?
Its AC40 is 831 nM.

With Cc1cc(C)c(S(=O)(=O)NC(C)C)c(C)c1-n1cnnn1 as the compound, how does the AC40 read?
The AC40 was 1720 nM.

With Cc1cc(C)c(C)c(S(=O)(=O)NC2CCCCC2)c1C as the compound, how does the AC40 read?
The AC40 was 507 nM.

For O=C(Nc1ccc2ccccc2c1)c1ccc(Cl)cc1Cl, which AC40 is on record?
Its AC40 is > 35000 nM (inactive).

With O=S(=O)(c1ccc2c(c1)CCCN2)N1CCC[C@@H]2CCCC[C@H]21 as the compound, how does the AC40 read?
Its AC40 is 6940 nM.

With COc1ccc(S(=O)(=O)Nc2ccc(OC(F)F)cc2)c2cccnc12 as the compound, how does the AC40 read?
The AC40 was 1430 nM.

Which AC40 does the source give for S=C(Nc1ccc(Cl)cc1Cl)NC1CCCCC1 here?
Its AC40 is 4180 nM.

For CN1C(=O)c2cccc3c(S(=O)(=O)NCCc4ccccc4)ccc1c23, which AC40 is on record?
Its AC40 is 300 nM.

For O=C(CN1CCOCC1)Nc1ccc(Br)cc1C(=O)c1ccccc1, which AC40 is on record?
The AC40 was 1430 nM.

Which AC40 does the source give for Cc1ccc(C)c(S(=O)(=O)Nc2ccc(-n3cnnn3)cc2)c1 here?
Its AC40 is 271 nM.

Which AC40 does the source give for Cc1cc(C(C)(C)C)cc(S(=O)(=O)NCCO)c1C here?
The AC40 was 1260 nM.

For CCN(CC)C(=O)CN(c1cc2c(cc1OC)oc1ccccc12)S(=O)(=O)c1ccccc1, which AC40 is on record?
Its AC40 is 2290 nM.

With COC(=O)c1cc(S(=O)(=O)Nc2cc(OC)cc(OC)c2)cn1C as the compound, how does the AC40 read?
The AC40 was 3190 nM.

For Nc1c(S(=O)(=O)c2cccs2)c2nc3ccccc3nc2n1Cc1ccccc1, which AC40 is on record?
Its AC40 is 1250 nM.

With Cc1ccc(C)c(S(=O)(=O)Nc2ccc3cn[nH]c3c2)c1 as the compound, how does the AC40 read?
The AC40 was 1540 nM.

Which AC40 does the source give for O=C(Nc1ccc(N2CCOCC2)c(S(=O)(=O)Nc2cc(Cl)ccc2Cl)c1)c1cccnc1 here?
The AC40 was 761 nM.

For CCOc1ccc(C)cc1S(=O)(=O)NC1CCCCC1, which AC40 is on record?
The AC40 was 394 nM.

For CCOc1ccccc1N1CCN(C(=O)c2cccc(-c3ccc(O)cc3)c2)CC1, which AC40 is on record?
Its AC40 is < 260 nM.

With CCCCNS(=O)(=O)c1ccc2nc(-c3cccnc3)cc(C(=O)NC(C)CC)c2c1 (centres undefined) as the compound, how does the AC40 read?
Its AC40 is 274 nM.

With Cc1ccc(NS(=O)(=O)c2cc(C(=O)NCc3ccccn3)ccc2Cl)cc1C as the compound, how does the AC40 read?
The AC40 was 2270 nM.

With COc1ccc(C(C)(C)C)cc1S(=O)(=O)NCC1CCCO1 (centres undefined) as the compound, how does the AC40 read?
Its AC40 is 456 nM.

For COc1cccc(N2CCN(C(=O)c3oc4ccccc4c3NC(=O)CCc3cc(OC)no3)CC2)c1, which AC40 is on record?
Its AC40 is 2390 nM.

For COc1cc(C)c(C(C)C)cc1S(=O)(=O)n1cnc(C)c1, which AC40 is on record?
Its AC40 is 4600 nM.

For Cc1cc(Cl)c(Cl)cc1S(=O)(=O)NCCCn1ccnc1, which AC40 is on record?
The AC40 was 1890 nM.

Which AC40 does the source give for Cc1cccc(NS(=O)(=O)c2cc3c(cc2C)NC(=O)CO3)c1 here?
The AC40 was 2650 nM.

With COc1ccc(S(=O)(=O)NCCN2CCOCC2)c2ccccc12 as the compound, how does the AC40 read?
Its AC40 is 1600 nM.

For Cc1cc(S(=O)(=O)NC2CCCCC2)c(C)s1, which AC40 is on record?
The AC40 was 2040 nM.

For Cc1ccc(C(C)C)cc1S(=O)(=O)Nc1cccnc1, which AC40 is on record?
The AC40 was 1790 nM.

Which AC40 does the source give for Cc1ccc(S(=O)(=O)Nc2ccc3c4c(cccc24)CC3)c(C)c1 here?
Its AC40 is 3660 nM.

Which AC40 does the source give for Cc1cc(C)c(S(=O)(=O)NC2CC3CCC2C3)c(C)c1 (centres undefined) here?
Its AC40 is 792 nM.

For CCOc1cc(C)c(S(=O)(=O)NC2CCCCC2)cc1C, which AC40 is on record?
The AC40 was 1240 nM.
